ChEMBL document CHEMBL2177021, “Flavaglines as potent anticancer and cytoprotective agents” (J Med Chem, 2012)
Activity calls are given as the source filed them. No cut-off for these calls is given here.

What was measured:
[1] = Cytotoxicity against human HL60R cells overexpressing Pgp incubated for 72 hrs by MTS assay
HL-60 = experiment: cells; details: Homo sapiens, HL-60, 72 h
Description: Cytotoxicity against human HL60 cells incubated for 72 hrs by MTS assay

KB = details: Homo sapiens, 72 h
HCT-116 = details: Homo sapiens, HCT-116, 72 h
H9c2 [2] = experiment: Cardioprotection in rat H9c2 cells assessed as reduction in doxorubicin-induced toxicity at 10 nM pre-treated 10 hrs before doxorubicin challenge and measured 14 hrs post doxorubicin challenge by propidium iodide and annexin V staining; format: functional, cell-based
H9c2 [3] = experiment: Cardioprotection in rat H9c2 cells assessed as reduction in doxorubicin-induced toxicity at 100 nM pre-treated 10 hrs before doxorubicin challenge and measured 14 hrs post doxorubicin challenge by propidium iodide and annexin V staining; format: functional, cell-based
Rattus norvegicus [4] = species on record: Rattus norvegicus; experiment: Neuroprotection in Wistar rat DA neurons assessed as reduction in MPP+-induced neurotoxicity at 0.1 to 1000 nM pre-treated 1 day before MPP+ by tyrosine hydroxylase detection based immunocytochemistry; format: functional
Mus musculus [5] = species on record: Mus musculus; experiment: Cardioprotective effect in mouse assessed as attenuation of cardiac fibrosis by measuring reduction in mouse mortality; format: functional, Heart; design: scale not given: the % may be the effect or the level left
Mus musculus [6] = species on record: Mus musculus; experiment: Cardioprotective effect in mouse assessed as attenuation of cardiomyocyte apoptosis by measuring reduction in mouse mortality; format: functional; design: scale not given: the % may be the effect or the level left
Rattus norvegicus [7] = species on record: Rattus norvegicus; experiment: Neuroprotection in Wistar rat DA neurons assessed as reduction in MPP+-induced neurotoxicity at 10 nM pre-treated 1 day before MPP+ by tyrosine hydroxylase detection based immunocytochemistry; format: functional
[8] = system: Cerebellar granule neurone; experiment: Neuroprotection in mouse cerebellar granule neurons assessed as reduction in cisplatin-induced neurotoxicity at 0.25 to 10 nM incubated simultaneously with cisplatin for 48 hrs by MTT assay; format: functional
Rattus norvegicus [9] = species on record: Rattus norvegicus; experiment: Neuroprotection in Wistar rat DA neurons assessed as reduction in MPP+-induced neurotoxicity at 1 to 100 nM pre-treated 1 day before MPP+ by tyrosine hydroxylase detection based immunocytochemistry; format: functional
[10] = system: Cerebellar granule neurone; experiment: Neuroprotection in mouse cerebellar granule neurons assessed as reduction in cisplatin-induced neurotoxicity at 1 to 5 nM incubated simultaneously with cisplatin for 48 hrs by MTT assay; format: functional
[11] = Toxicity in mouse cerebellar granule neurons assessed as induction of apoptosis at 0.25 to 10 nM incubated for 48 hrs by MTT assay; details: cerebellar granule neurone, 0.01 µM
Rattus norvegicus [12] = species on record: Rattus norvegicus; experiment: Neuroprotection in Wistar rat DA neurons assessed as reduction in MPP+-induced neurotoxicity at 1 to 1000 nM pre-treated 1 day before MPP+ by tyrosine hydroxylase detection based immunocytochemistry; format: functional
Rattus norvegicus [13] = species on record: Rattus norvegicus; experiment: Neuroprotection in Wistar rat DA neurons assessed as reduction in MPP+-induced neurotoxicity at 100 nM pre-treated 1 day before MPP+ by tyrosine hydroxylase detection based immunocytochemistry; format: functional
[14] = system: Cerebellar granule neurone; experiment: Neuroprotection in mouse cerebellar granule neurons assessed as reduction in cisplatin-induced neurotoxicity at 5 nM incubated simultaneously with cisplatin for 48 hrs by MTT assay; format: functional
Rattus norvegicus [15] = species on record: Rattus norvegicus; experiment: Neuroprotection in Wistar rat DA neurons assessed as reduction in MPP+-induced neurotoxicity at 10 uM pre-treated 1 day before MPP+ by tyrosine hydroxylase detection based immunocytochemistry; format: functional
[16] = system: Cerebellar granule neurone; experiment: Neuroprotection in mouse cerebellar granule neurons assessed as reduction in cisplatin-induced neurotoxicity at 10 nM incubated simultaneously with cisplatin for 48 hrs by MTT assay; format: functional
Rattus norvegicus [17] = species on record: Rattus norvegicus; experiment: Neuroprotection in Wistar rat DA neurons assessed as reduction in MPP+-induced neurotoxicity at 1 nM pre-treated 1 day before MPP+ by tyrosine hydroxylase detection based immunocytochemistry; format: functional

Compound	IC50 [1] [nM]	IC50 (HL-60) [nM]	IC50 (KB) [nM]	IC50 (HCT-116) [nM]	Activity (H9c2 [2])	Activity (H9c2 [3])	other results
COC(=O)[C@H]1[C@@H](O)[C@@]2(O)c3c(OC)cc(OC)cc3O[C@@]2(c2ccc(OC)cc2)[C@@H]1c1cccc(F)c1	28	20	9.9	5.2			
COc1cc(OC)c2c(c1)O[C@@]1(c3ccc(Br)cc3)[C@H](c3cccc(F)c3)C[C@H](NC(C)=O)[C@@]21O	7.1	10	8.4	7.5	Active	inactive	
COC(=O)N[C@H]1C[C@@H](c2cccc(F)c2)[C@]2(c3ccc(Cl)cc3)Oc3cc(OC)cc(OC)c3[C@]12O		71	50	38		Active	Activity (Rattus norvegicus [4]): Active
COc1cc(OC)c2c(c1)O[C@@]1(c3ccc(Br)cc3)[C@H](c3ccccc3)C[C@@H](O)[C@@]21O	4.5	3.8	2.4	5.8	Active	Active	Activity (Mus musculus [5]): 50%; Activity (Mus musculus [6]): 50%; Activity (Rattus norvegicus [7]): Active
COC(=O)[C@H]1[C@@H](O)[C@@]2(O)c3c(OC)cc(OC)cc3O[C@@]2(c2ccc(Cl)cc2)[C@@H]1c1ccccc1	13	29	2.4	19			
COc1cc(OC)c2c(c1)O[C@@]1(c3ccc(Cl)cc3)[C@H](c3cccc(F)c3)C[C@H](NC(=O)N(C)C)[C@@]21O		3.2	2.1	1.9	Active	Active	Activity (Rattus norvegicus [7]): inactive
COc1cc(OC)c2c(c1)O[C@@]1(c3ccc(Br)cc3)[C@H](c3cccc(F)c3)C[C@H](NC=O)[C@@]21O	1.4	3.4	3.5	1.9	Active		
COc1cc(OC)c2c(c1)O[C@@]1(c3ccc(Br)cc3)[C@H](c3ccccc3)C[C@H](NC=O)[C@@]21O	1.7				Active		Activity [8]: Active; Activity (Rattus norvegicus [9]): Active; Activity [10]: Active; Activity [11]: Non-toxic; Activity (Rattus norvegicus [12]): Active
CC(=O)O[C@@]12CO[C@@H]1C[C@H](O)[C@@]1(C)C(=O)[C@H](O)C3=C(C)[C@@H](OC(=O)[C@H](O)[C@@H](NC(=O)OC(C)(C)C)c4ccccc4)C[C@@](O)([C@@H](OC(=O)c4ccccc4)[C@H]21)C3(C)C [DOCETAXEL]	531						
COc1ccc([C@@]23Oc4cc(OC)cc(OC)c4[C@]2(O)[C@H](O)C[C@H]3c2cccc(F)c2)cc1	60	94	41	23	Active	Active	Activity (Rattus norvegicus [13]): Active; Activity [11]: Non-toxic; Activity [14]: Active; Activity (Rattus norvegicus [15]): inactive; Activity [16]: inactive
COc1cc(OC)c2c(c1)O[C@@]1(c3ccc(Br)cc3)[C@H](c3cccc(F)c3)[C@@H](C(N)=O)[C@@H](O)[C@@]21O	3.3	1.4	1.2	1.2	Active	inactive	
COc1cc(OC)c2c(c1)O[C@@]1(c3ccc(Br)cc3)[C@H](c3cccc(F)c3)C[C@H](NC(=O)CO)[C@@]21O	42	31	37	22	inactive	Active	
CCC(=O)N[C@H]1C[C@@H](c2cccc(F)c2)[C@]2(c3ccc(Br)cc3)Oc3cc(OC)cc(OC)c3[C@]12O	4.9	6.2	7.8	5.3	Active	inactive	
COc1cc(OC)c2c(c1)O[C@@]1(c3ccc(Cl)cc3)[C@H](c3cccc(F)c3)C[C@H](NC=O)[C@@]21O		13	10	8.2	Active	Active	
COc1cc(OC)c2c(c1)O[C@@]1(c3ccc(Cl)cc3)[C@H](c3ccccc3)C[C@@H](O)[C@@]21O	2.4	5.9	6.6	4.6	Active	Active	
COc1cc(OC)c2c(c1)O[C@@]1(c3ccc(Br)cc3)[C@H](c3cccc(F)c3)C[C@H](NC(N)=O)[C@@]21O		3.3	2.9	2.1			
COc1cc(OC)c2c(c1)O[C@@]1(c3ccc(Br)cc3)[C@H](c3cccc(F)c3)C[C@H](NC(=O)CN(C)C)[C@@]21O	5.6	4.8	5.8	5	Active	Active	
COc1cc(OC)c2c(c1)O[C@@]1(c3ccc(Br)cc3)[C@H](c3cccc(F)c3)C[C@@H](O)[C@@]21O	3.1	8.9	10	5.3	Active	Active	
COC(=O)[C@H]1[C@@H](O)[C@@]2(O)c3c(OC)cc(OC)cc3O[C@@]2(c2ccc(Br)cc2)[C@@H]1c1cccc(F)c1	14	3.2	2.8	2.4			Activity (Rattus norvegicus [9]): Active
CC[C@]1(O)C[C@@H]2CN(CCc3c([nH]c4ccccc34)[C@@](C(=O)OC)(c3cc4c(cc3OC)N(C)[C@H]3[C@@](O)(C(=O)OC)[C@H](OC(C)=O)[C@]5(CC)C=CCN6CC[C@]43[C@@H]65)C2)C1 [VINBLASTINE]	> 100						
COc1cc(OC)c2c(c1)O[C@@]1(c3ccc(Br)cc3)[C@H](c3cccc(F)c3)C[C@H](NC(=O)N(C)C)[C@@]21O	2.2	4.1	3.6	2.4	Active	Active	Activity (Rattus norvegicus [17]): Active; Activity [11]: Non-toxic; Activity (Rattus norvegicus [4]): Active
